Earlier results as cited in patent publication US12508229B2, “Method for preparing stable peptide formulations” (Amphastar Pharmaceuticals, Inc., priority 2019, dated 2025).

Molecule	aqueous solubility	aqueous solubility (in words)
OC[C@H]1O[C@@H]2O[C@H]3[C@H](O)[C@@H](O)[C@@H](O[C@H]4[C@H](O)[C@@H](O)[C@@H](O[C@H]5[C@H](O)[C@@H](O)[C@@H](O[C@H]6[C@H](O)[C@@H](O)[C@@H](O[C@H]7[C@H](O)[C@@H](O)[C@@H](O[C@H]1[C@H](O)[C@H]2O)O[C@@H]7CO)O[C@@H]6CO)O[C@@H]5CO)O[C@@H]4CO)O[C@@H]3CO [α-CD, α-cyclodextrin]	about 5 wt %	–
OC[C@H]1O[C@@H]2O[C@H]3[C@H](O)[C@@H](O)[C@@H](O[C@H]4[C@H](O)[C@@H](O)[C@@H](O[C@H]5[C@H](O)[C@@H](O)[C@@H](O[C@H]6[C@H](O)[C@@H](O)[C@@H](O[C@H]7[C@H](O)[C@@H](O)[C@@H](O[C@H]8[C@H](O)[C@@H](O)[C@@H](O[C@H]9[C@H](O)[C@@H](O)[C@@H](O[C@H]1[C@H](O)[C@H]2O)O[C@@H]9CO)O[C@@H]8CO)O[C@@H]7CO)O[C@@H]6CO)O[C@@H]5CO)O[C@@H]4CO)O[C@@H]3CO [γ-cyclodextrin]	–	freely soluble in water
hydroxypropyl β-cyclodextrin [HP-ß-CD]	–	higher aqueous solubility than α-CD
